The record followed here is patent publication US20110263657A1, “DIARYL UREAS FOR TREATING HEART FAILURE” (BAYER SCHERING PHARMA AKTIENGESELLSCHAFT, priority 2008, published 2011).

In the assay the test system is mouse models of pressure-induced heart failure. Briefly: Pressure-induced heart failure (TAC) in mice, organ weights and hemodynamic measurements. The settings on record: banded (TAC) mice, 50 mg/kg/d po for 4 weeks. In kind it is in vivo. The method, then: The effects of the compound and drug combinations according to the invention are tested in vivo in mouse models of pressure-induced heart failure.
Methods: Pressure-Induced Heart Failure (TAC)
Surgery: 8 weeks old mice were pre-anesthetized for 2-3 min in an isofluran flooded box and then intubated (tubus of own fabrication).
Mice were placed on the right side on a heating panel and the tubus was connected to a ventilation pump (Mini Vent Type 845, Hugo Sachs Electronic) which allowed the further ventilation of mice with isofluran (1.5%).
Mice were prepared for the surgery: eyes moistened with Bepanthen® salve (pharmaceutical ointment containing dexpanthenol), operation field shaved and disinfected, mice fixated with tape in a right lateral position.
The skin cut was placed ca 2 mm behind the left elbow and was 5 mm length and vertical. Pectoral muscles were separated until ribs. A wound-spreader was placed between the 2nd and the 3rd rib and thymus was visualized. After pushing by side the thymus V. cava, A pulmonalis and Aorta with both carotid branching were viewed. With help from a curved polished vessel catheter a ligation thread was placed around the aorta between both carotid branching. The aorta was constricted to a diameter of 0.6 mm with help from a splint.
By sham operated mice the same procedure was effectuated but the aorta was not constricted.
Before they woke up, mice were given 5 mg/5 ml/kg sc Rimadyl® (Pfizer, Carprofen), wound was cleaned with […] and coated with antibiotic salve (Neomycin® salve) and Bepanthen® salve was removed from the eyes.
After awaking from anesthesia the tubus was taken off and mice were placed in their cages heated with heating panels for at least half an hour.
Mice were divided into 3 groups (n=10-12): • sham operated with vehicle treatment • placebo with vehicle treatment • Sorafenib: 50 mg/kg/d in vehicle
Substances were dissolved in 10% Ethanol, 40% Solutol and 50% water.
Application volumes: 10 ml/kg/d po
Treatment: begin 1 day after surgery for 4 weeks
After 4 weeks of treatment hemodynamic measurement were performed and mice were sacrificed.
Hemodynamic measurements: Mice were pre-anesthetized for 2-3 min in an isofluran flooded box, followed by fixation in an anesthesia mask (continuous flow of 1.5% isofluran by spontaneous breathing of the mouse). Mice were placed on the back on a heating panel.
Throats were shaved and the skin incised on the median line. The right A. carotis was prepared and ligated cranial. A tip-catheter (Millar Micro-Tip-Transducer, 1.0 oder 1.4 French, Firma HSE) was introduced in the right A. carotis and pushed into the left ventricle and fixated. There, pressure of the left ventricle was registered for a few minutes (after reaching a steady state) over the catheter and analyzed by the Millar Chart 5 software. After the measurements blood samples were taken. Finally organs (heart, lung, liver, right kidney) were collected.

For the compound `CNC(=O)c1cc(Oc2ccc(NC(=O)Nc3ccc(Cl)c(C(F)(F)F)c3)cc2)ccn1` [Sorafenib, 4{4-[3-(4-chloro-3-trifluoromethylphenyl)-ureido]-phenoxy}-pyridine-2-carboxylic acid methyl amide], the “Relaxation constant tau, increment” value is recorded as “inhibited”. For the same compound, under “compared to sham operated mice”, the “Heart weight/body weight ratio (hypertrophy)” value is “completely inhibited” and the “Left ventricular weight/body weight ratio (hypertrophy)” value was “completely inhibited”. In addition, where the note is “p<0.05 compared to placebo”, the “Left ventricular end diastolic pressure, augmentation compared to sham operated mice” value amounted to 7% and the “Left ventricular systolic pressure, augmentation compared to sham operated mice” value is 8%.
